In brackets after ≈: the same amount, converted by molar mass.
Columns and labels:
Mycobacterium abscessus = assay: MIC against Mycobacterium abscessus (Mab_ATCC, MHII broth); assay type: cell-based; settings: Mycobacteroides abscessus; Mycobacterium abscessus ATCC strain; Mueller-Hinton broth (MHII)
Text: Key for Tables: MIC: Minimum Inhibitory Concentration; MABA: microplate-based Alamar Blue assay; Mab: Mycobacterium abscessus; ATCC: American Type Culture Collection; and MHII: Mueller-Hinton broth.

M tb H37Rv = assay: MIC determination against M tb H37Rv (green fluorescent protein reporter assay; MIC-MABA); assay type: cell-based, Mycobacterium tuberculosis; settings: Mycobacterium tuberculosis, H37RV, 240 h, read-out: M. TB H37Rv: MIC-MABA: MIC, M. tb H37Rv; 7H9 broth; 10 days exposure; MIC = lowest concentration inhibiting fluorescence by 90%

Row | Compound | MIC (Mycobacterium abscessus) [µg/mL] | MIC (M tb H37Rv) [µg/mL]
1 | Cc1nc2[nH]c(C(=O)N[C@H]3CC[Si](C)(C)C3)cc2c(F)c1F (single isomer, unassigned) [MPL-295B] | 0.12 (≈ 0.371 µM) | < 0.004
2 | Cc1nc2[nH]c(C(=O)N[C@@H]3CCC[Si](C)(C)CC3)cc2c(F)c1Cl (single isomer, unassigned) [MPL-316A] | 0.19 (≈ 0.516 µM) | 0.014 (≈ 0.0381 µM)
3 | COc1ccc2cc(C(=O)N[C@H]3CCC[Si](C)(C)CC3)[nH]c2n1 (single isomer, unassigned) [MPL-466A] | 0.25 (≈ 0.754 µM) | 0.042 (≈ 0.127 µM)
4 | COc1ccc2cc(C(=O)N[C@@H]3CCC[Si](C)(C)CC3)[nH]c2n1 (single isomer, unassigned) [MPL-466B] | 8 (≈ 24.1 µM) | > 1
5 | C[C@@H]1[C@@H](NC(=O)c2cc3c(Br)ccnc3[nH]2)C[C@H]2C[C@@H]1C2(C)C [MPL-012, 4-bromo-N-[(1S,2S,3S,5R)-2,6,6-trimethylnorpinan-3-yl]-1H-pyrrolo[2,3-b]pyridine-2-carboxamide] | 4 (≈ 10.6 µM) | 0.048 (≈ 0.128 µM)
6 | O=C(NC1CCCCCCC1)c1cc2c(Cl)cncc2[nH]1 [MPL-034, 4-chloro-N-cyclooctyl-1H-pyrrolo[2,3-c]pyridine-2-carboxamide] | 2 (≈ 6.54 µM) | 0.25 (≈ 0.818 µM)
7 | Cc1cc(F)c2cc(C(=O)NC3CCCCCCC3)[nH]c2n1 [MPL-044, N-cyclooctyl-4-fluoro-6-methyl-1H-pyrrolo[2,3-b]pyridine-2-carboxamide] | 2 (≈ 6.59 µM) | 0.013 (≈ 0.0429 µM)
8 | Cc1cc(Cl)c2cc(C(=O)N[C@H]3C[C@H]4C[C@@H]([C@@H]3C)C4(C)C)[nH]c2n1 [MPL-045, 4-chloro-6-methyl-N-[(1S,2S,3S,5R)-2,6,6-trimethylnorpinan-3-yl]-1H-pyrrolo[2,3-b]pyridine-2-carboxamide] | 2 (≈ 5.78 µM) | 0.069 (≈ 0.199 µM)
9 | Cc1nc2[nH]c(C(=O)NC3CCC(C)(C)CC3)cc2c(F)c1F [MPL-067, N-(4,4-dimethylcyclohexyl)-4,5-difluoro-6-methyl-1H-pyrrolo[2,3-b]pyridine-2-carboxamide] | 0.25 (≈ 0.778 µM) | 0.01 (≈ 0.0311 µM)
10 | Cc1cc(F)c2cc(C(=O)NC3CCC(C)(C)CC3)[nH]c2n1 [MPL-118, N-(4,4-dimethylcyclohexyl)-4-fluoro-6-methyl-1H-pyrrolo[2,3-b]pyridine-2-carboxamide] | 1 (≈ 3.3 µM) | 0.017 (≈ 0.056 µM)
11 | Cc1cc(Cl)c2cc(C(=O)NC3CCC(C)(C)CC3)[nH]c2n1 [MPL-119, 4-chloro-N-(4,4-dimethylcyclohexyl)-6-methyl-1H-pyrrolo[2,3-b]pyridine-2-carboxamide] | 0.5 (≈ 1.56 µM) | 0.14 (≈ 0.438 µM)
12 | Cc1cc2cc(C(=O)N[C@H]3C[C@H]4C[C@@H]([C@@H]3C)C4(C)C)[nH]c2cn1 [MPL-124, 5-methyl-N-[(1S,2S,3S,5R)-2,6,6-trimethylnorpinan-3-yl]-1H-pyrrolo[2,3-c]pyridine-2-carboxamide] | 16 (≈ 51.4 µM) | 3.1 (≈ 9.95 µM)
13 | CC1(C)CCC(NC(=O)c2cc3cc(Cl)ncc3[nH]2)CC1 [MPL-127, 5-chloro-N-(4,4-dimethylcyclohexyl)-1H-pyrrolo[2,3-c]pyridine-2-carboxamide] | 8 (≈ 26.2 µM) | 0.54 (≈ 1.77 µM)
14 | CC1(C)C2CCC1(C)C(NC(=O)c1cc3c(F)cncc3[nH]1)C2 (centres unmarked) [MPL-188, 4-fluoro-N-(1,7,7-trimethylnorbornan-2-yl)-1H-pyrrolo[2,3-c]pyridine-2-carboxamide] | 8 (≈ 25.4 µM) | 
15 | C[Si]1(C)CCCC(NC(=O)c2cc3c(Cl)c(Cl)ncc3[nH]2)CC1 (centres unmarked) [MPL-350, 4,5-dichloro-N-(1,1-dimethylsilepan-4-yl)-1H-pyrrolo[2,3-c]pyridine-2-carboxamide] |  | 0.247 (≈ 0.667 µM)
16 | Cc1ncc2[nH]c(C(=O)NC3CCC[Si](C)(C)CC3)cc2c1F (centres unmarked) [MPL-351, N-(1,1-dimethylsilepan-4-yl)-4-fluoro-5-methyl-1H-pyrrolo[2,3-c]pyridine-2-carboxamide] |  | 0.248 (≈ 0.744 µM)
17 | Cc1ncc2[nH]c(C(=O)NC3CC[Si](C)(C)CC3)c(C)c2c1F [MPL-352, N-(1,1-dimethylsilinan-4-yl)-4-fluoro-3,5-dimethyl-1H-pyrrolo[2,3-c]pyridine-2-carboxamide] |  | 0.122 (≈ 0.366 µM)
18 | Cc1ncc2[nH]c(C(=O)NC3CCC[Si](C)(C)CC3)c(C)c2c1F (centres unmarked) [MPL-353, N-(1,1-dimethylsilepan-4-yl)-4-fluoro-3,5-dimethyl-1H-pyrrolo[2,3-c]pyridine-2-carboxamide] |  | 0.124 (≈ 0.357 µM)
19 | C[Si]1(C)CCCC(NC(=O)c2cc3c(F)c(C(F)(F)F)ncc3[nH]2)CC1 (centres unmarked) [MPL-366, N-(1,1-dimethylsilepan-4-yl)-4-fluoro-5-(trifluoromethyl)-1H-pyrrolo[2,3-c]pyridine-2-carboxamide] |  | 0.492 (≈ 1.27 µM)
20 | O=C(NC1CC[Si]2(CCCC2)CC1)c1cc2c(F)c(C(F)(F)F)ncc2[nH]1 [MPL-367, 4-fluoro-N-(5-silaspiro[4.5]decan-8-yl)-5-(trifluoromethyl)-1H-pyrrolo[2,3-c]pyridine-2-carboxamide] |  | 0.988 (≈ 2.47 µM)

Row | Compound | MIC (Mycobacterium abscessus) [µg/mL] | MIC (M tb H37Rv) [µg/mL]
21 | O=C(NC1CC[Si]2(CCCCC2)CC1)c1cc2c(F)c(C(F)(F)F)ncc2[nH]1 [MPL-368, 4-fluoro-N-(6-silaspiro[5.5]undecan-3-yl)-5-(trifluoromethyl)-1H-pyrrolo[2,3-c]pyridine-2-carboxamide] |  | 0.49 (≈ 1.19 µM)
22 | Cc1c(C(F)(F)F)ncc2[nH]c(C(=O)NC3CC[Si](C)(C)CC3)cc12 [MPL-376, N-(1,1-dimethylsilinan-4-yl)-4-methyl-5-(trifluoromethyl)-1H-pyrrolo[2,3-c]pyridine-2-carboxamide] |  | 0.188 (≈ 0.509 µM)
23 | COc1c(C(F)(F)F)ncc2[nH]c(C(=O)NC3CC[Si](C)(C)CC3)cc12 [MPL-379, N-(1,1-dimethylsilinan-4-yl)-4-methoxy-5-(trifluoromethyl)-1H-pyrrolo[2,3-c]pyridine-2-carboxamide] |  | 0.332 (≈ 0.861 µM)
24 | CC(C)Oc1cncc2[nH]c(C(=O)NC3CC[Si](C)(C)CC3)cc12 [MPL-382, N-(1,1-dimethylsilinan-4-yl)-4-isopropoxy-1H-pyrrolo[2,3-c]pyridine-2-carboxamide] |  | 0.368 (≈ 1.07 µM)
25 | C[Si]1(C)CCC(NC(=O)c2cc3ccc(-c4ccccc4)nc3[nH]2)CC1 [MPL-388, N-(1,1-dimethylsilinan-4-yl)-6-phenyl-1H-pyrrolo[2,3-b]pyridine-2-carboxamide] |  | 0.012 (≈ 0.033 µM)
26 | C[Si]1(C)CCC(NC(=O)c2cc3ccc(-c4cccnc4)nc3[nH]2)CC1 [MPL-389, N-(1,1-dimethylsilinan-4-yl)-6-(3-pyridyl)-1H-pyrrolo[2,3-b]pyridine-2-carboxamide] |  | 0.216 (≈ 0.593 µM)
27 | C[Si]1(C)CCC(NC(=O)c2cc3cc(-c4ccccc4)cnc3[nH]2)CC1 [MPL-391, N-(1,1-dimethylsilinan-4-yl)-5-phenyl-1H-pyrrolo[2,3-b]pyridine-2-carboxamide] |  | 0.051 (≈ 0.14 µM)
28 | C[Si]1(C)CCC(NC(=O)c2cc3cc(-c4cccnc4)cnc3[nH]2)CC1 [MPL-392, N-(1,1-dimethylsilinan-4-yl)-5-(3-pyridyl)-1H-pyrrolo[2,3-b]pyridine-2-carboxamide] |  | 0.464 (≈ 1.27 µM)
29 | C[Si]1(C)CCC(NC(=O)c2cc3cc(C(F)(F)F)ncc3[nH]2)C1 (centres unmarked) [MPL-402, N-(1,1-dimethylsilolan-3-yl)-5-(trifluoromethyl)-1H-pyrrolo[2,3-c]pyridine-2-carboxamide] |  | 0.962 (≈ 2.82 µM)
30 | O=C(NC1CC[Si]2(CCCCC2)CC1)c1cc2cc(-c3ccccc3F)cnc2[nH]1 [MPL-434, 5-(2-fluorophenyl)-N-(6-silaspiro[5.5]undecan-3-yl)-1H-pyrrolo[2,3-b]pyridine-2-carboxamide] |  | 0.061 (≈ 0.145 µM)
31 | O=C(NC1CC[Si]2(CCCCC2)CC1)c1cc2cc(-c3cccnc3)cnc2[nH]1 [MPL-435, 5-(3-pyridyl)-N-(6-silaspiro[5.5]undecan-3-yl)-1H-pyrrolo[2,3-b]pyridine-2-carboxamide] |  | 1 (≈ 2.47 µM)
32 | C[Si]1(C)CCC(NC(=O)c2cc3cc(-c4ccccc4)ncc3[nH]2)CC1 [MPL-445] |  | 0.119 (≈ 0.327 µM)
33 | Cc1c(C(F)(F)F)ncc2[nH]c(C(=O)NC3CCC[Si](C)(C)CC3)cc12 (centres unmarked) [MPL-451, N-(1,1-dimethylsilepan-4-yl)-4-methyl-5-(trifluoromethyl)-1H-pyrrolo[2,3-c]pyridine-2-carboxamide] |  | 0.99 (≈ 2.58 µM)
34 | COc1ncc2[nH]c(C(=O)NC3CC[Si](C)(C)CC3)cc2c1C(F)(F)F [MPL-452, N-(1,1-dimethylsilinan-4-yl)-5-methoxy-4-(trifluoromethyl)-1H-pyrrolo[2,3-c]pyridine-2-carboxamide] |  | 0.118 (≈ 0.306 µM)
35 | COc1ccc2cc(C(=O)NC3CC[Si]4(CCCC4)CC3)[nH]c2n1 [MPL-454, 6-methoxy-N-(5-silaspiro[4.5]decan-8-yl)-1H-pyrrolo[2,3-b]pyridine-2-carboxamide] |  | 0.458 (≈ 1.33 µM)
36 | COc1ccc2cc(C(=O)NC3CC[Si]4(CCCCC4)CC3)[nH]c2n1 [MPL-455, 6-methoxy-N-(6-silaspiro[5.5]undecan-3-yl)-1H-pyrrolo[2,3-b]pyridine-2-carboxamide] |  | 0.121 (≈ 0.338 µM)
37 | COc1cc(Cl)c2cc(C(=O)NC3CC[Si](C)(C)CC3)[nH]c2n1 [MPL-465, 4-chloro-N-(1,1-dimethylsilinan-4-yl)-6-methoxy-1H-pyrrolo[2,3-b]pyridine-2-carboxamide] |  | 0.008 (≈ 0.0227 µM)
38 | COc1ccc2cc(C(=O)NC3CCC[Si](C)(C)CC3)[nH]c2n1 (centres unmarked) [MPL-466, N-(1,1-dimethylsilepan-4-yl)-6-methoxy-1H-pyrrolo[2,3-b]pyridine-2-carboxamide] |  | 0.119 (≈ 0.359 µM)
39 | C[Si]1(C)CCC(NC(=O)c2cc3ccc(OC4CCC4)nc3[nH]2)CC1 [MPL-467, 6-(cyclobutoxy)-N-(1,1-dimethylsilinan-4-yl)-1H-pyrrolo[2,3-b]pyridine-2-carboxamide] |  | 0.121 (≈ 0.338 µM)
40 | COc1ccc2cc(C(=O)NC3CCC[Si](C)(C)CCC3)[nH]c2n1 [MPL-469, N-(1,1-dimethylsilocan-5-yl)-6-methoxy-1H-pyrrolo[2,3-b]pyridine-2-carboxamide] |  | 0.206 (≈ 0.596 µM)
